Laboratory results taken from patent publication US5571844A, “Amidinophenylalanine derivatives, a process for their preparation, their use and compositions containing these as anticoagulants” (Behringwerke Aktiengesellschaft, priority 1993, dated 1996).

How the values were obtained:
[1] = molecular target: T1, trypsin (Bos taurus, UniProt P00760); experiment: Ki with respect to trypsin (specificity of the inhibitors); type: biochemical
T1 sequence (P00760 24-246): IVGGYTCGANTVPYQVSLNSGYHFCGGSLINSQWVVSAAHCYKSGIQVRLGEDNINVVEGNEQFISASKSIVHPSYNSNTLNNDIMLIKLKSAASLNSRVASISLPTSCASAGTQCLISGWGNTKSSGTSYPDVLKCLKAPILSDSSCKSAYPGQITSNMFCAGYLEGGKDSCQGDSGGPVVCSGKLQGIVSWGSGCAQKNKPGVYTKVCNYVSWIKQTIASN
Experimental: (§1) The inhibitors according to the invention have been tested according to various criteria to assess their efficacy, these preferably being the determination of the Ki value, of the IC50 value and of the partial thrombo-plastin time (PTT) in vivo and in vitro. To test the specificity, the IC50 values and Ki values with respect to various serine proteases, especially thrombin and trypsin, were measured. The stability of the substances according to the invention was determined by incubating a sample of the substance with a pure enzyme, preferably trypsin, chymotrypsin or papain, and with liver or intestinal homogenates, taking samples from the solutions at intervals of time, and preferably measuring by HPLC.
The specificity of the inhibitors was determined with thrombin and trypsin. The specificity is defined as the ratio of the Ki values for trypsin and thrombin (table).

[2] = Determination of the elimination half-lives t1/2 β, intravenous, rats; type: in vivo; conditions: rat, i.v., 5 mg/kg, plasma, calculated, second phase
Experimental: Determination of the Elimination Half-lives t1/2 β The thrombin inhibitors (2)-(5) in the table were administered intravenously to rats (5 in each group) at a dosage of 5 mg/kg. Blood samples were taken, and the time-dependent concentrations of thrombin inhibitors in the plasma were determined. Elimination takes place in two phases. The calculated elimination half-lives t1/2 β are compiled in it.

[3] = Determination of the subcutaneous absorption of substances (2) and (5), rabbits; type: in vivo; conditions: 2 mg/kg
Experimental: The substances were administered to rabbits subcutaneously in a dosage of 2 mg/kg. The maximum plasma concentration of (5) was reached after 5 minutes. The maximum plasma concentration of (2) was reached after 80 minutes.

[4] = molecular target: human thrombin (Homo sapiens, UniProt P00734); experiment: Determination of the inhibition constants (Ki) for thrombin; type: biochemical; conditions: human thrombin 100 pM, substrate S2238, pH 7.8, 37 degrees C., 60 min preincubation
Experimental: as §1
The inhibition constants (Ki) for the substances were determined by known enzyme kinetic methods. The human thrombin employed was determined to be 87% pure by means of active site titration. […] The inhibitor and enzyme were preincubated for 60 minutes, and the reaction was started by addition of the chromogenic substrate S2238. The kinetics were analyzed using the mathematical algorithm for tight binding, which with the aid of non-linear regression yielded Ki values (table) and the type of inhibition.

Question: Which results are given for `COc1cc(C)c(S(=O)(=O)N[C@@H](CC(=O)O)C(=O)N[C@H](Cc2ccc(C(=N)N)cc2)C(=O)N2CCCCC2)c(C)c1C` [(5)]?
Answer: Ki [1]: 312 nM; half-life [2]: 19 min; Tmax ([3]; rabbit, plasma, sc, read-out: time to maximum plasma concentration (converted)): 5 min; duration of effective plasma level ([3]; s.c.): 3 h; Ki [4]: 2.5 nM
